Where “and” joins values, the source holds several entries; their conditions need not be identical. Equal values may be shown once.
Legend:
5-LOX = target: T1, 5-LOX (Homo sapiens, UniProt P09917); experiment: 5-LOX inhibitory assay; type: biochemical
T1 construct: purchased Cayman Chemical Batch No.: A3457
T1 sequence (P09917 1-674): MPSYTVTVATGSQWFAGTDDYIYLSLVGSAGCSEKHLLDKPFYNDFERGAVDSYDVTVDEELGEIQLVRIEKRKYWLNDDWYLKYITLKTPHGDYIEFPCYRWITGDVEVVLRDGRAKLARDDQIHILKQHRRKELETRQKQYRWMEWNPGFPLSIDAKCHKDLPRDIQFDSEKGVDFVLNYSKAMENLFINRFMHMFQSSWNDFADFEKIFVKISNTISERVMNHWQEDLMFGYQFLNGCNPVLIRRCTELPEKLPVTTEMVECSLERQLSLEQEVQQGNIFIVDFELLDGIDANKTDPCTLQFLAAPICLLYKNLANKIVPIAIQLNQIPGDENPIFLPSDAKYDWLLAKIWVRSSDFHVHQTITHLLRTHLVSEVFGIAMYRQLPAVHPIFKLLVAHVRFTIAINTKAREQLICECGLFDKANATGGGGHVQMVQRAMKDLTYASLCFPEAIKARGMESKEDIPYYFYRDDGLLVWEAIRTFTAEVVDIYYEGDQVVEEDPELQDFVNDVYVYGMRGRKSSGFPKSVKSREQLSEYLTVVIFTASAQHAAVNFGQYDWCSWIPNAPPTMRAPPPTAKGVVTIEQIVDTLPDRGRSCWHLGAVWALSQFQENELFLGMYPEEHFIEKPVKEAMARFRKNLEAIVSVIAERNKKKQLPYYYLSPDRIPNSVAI
Description: The activity of MAK01 against the 5-LOX enzyme was investigated using a human recombinant form of 5-LOX [47]. To begin the 5-LOX activity assay, a 10,000 U/mL solution of 5-LOX was prepared in a phosphate buffer with a pH of 6.3. A range of concentrations of the test compounds in the same buffer were prepared for assay. As a substrate for 5-LOX, linoleic acid (80 mM) was diluted with ethyl alcohol and used in the assay. The experiment involved mixing the same amount of both the enzyme solution and the test sample, such as mixing 0.25 mL 5-LOX with 0.25 mL of the compound, both dissolved in buffer. The mixing was followed by incubation at 25 °C for 5 to 10 min. Subsequently, 0.10 mL of the linoleic acid solution was added and allowed to incubate for another 5 min. The absorbance was measured using a UV–visible spectrophotometer at a wavelength of 234 nm, and the percent inhibition was calculated based on the absorbance readings. The same procedure was repeated for different concentrations of the test samples. Zileuton, as a reference drug, was used in comparisons. Using the following formula, the percent inhibition for each sample was calculated: % Inhibition=Abs. of Control−Abs. of Sample/Abs. of Control×100

mice [1] = experiment: Acute toxicity in mice; type: in vivo
Description: The synthesized compound was assessed for its acute toxicity using mice sourced from the National Institute of Health in Pakistan. The mice for the experiment were categorized into several groups. Some groups were designated to receive the test samples, and another was set as a control group. […]. These compounds were first dissolved in normal saline before being administered. […]. The mice were monitored for a period of 24 h to 4 weeks following the administration of the pivalate-based Michael product. The study closely observed the mice for any irregular behavior, such as ataxia, aggressive reactions, and potential allergic symptoms, among others. Furthermore, any harmful outcomes or lethality were also recorded. These observations and recorded adverse events were compared between the group treated with the test compound and the control group. These comparisons offer valuable insights into the toxicity levels of the newly synthesized compounds [47].

[2] = system: carrageenan-induced paw edema; experiment: Carrageenan-induced paw edema model; type: in vivo; details: mice
Description: The anti-inflammatory activity of MAK01 was evaluated through a carrageenan-induced paw edema model. The mice, with weights ranging from 25 to 30 g, were separated into five distinct groups, these being Vehicle Group 1, Aspirin Group 2, and different concentrations of MAK01 in Groups 3–5. Each of these groups comprised five mice. The negative control group in the experiment received a specific solution comprising normal saline, DMSO, and Tween-80. The mixture contained 94% normal saline, 5% DMSO, and 1% Tween-80, delivered at a concentration of 10 mL per kg. In contrast, the positive control group in the assay received the comparator aspirin at a precise dose of 10 mg/kg. The test samples were administered at doses of 10 mg/kg, 20 mg/kg, and 30 mg/kg, given intra-peritoneally. After 30 min, a 2% carrageenan suspension (0.2 mL) was administered to each mouse in every group via a subcutaneous injection in the hind paw. In the experiment, a plethysmometer was used to precisely measure inflammation and edema. These measurements were taken at multiple time points both prior to and following the carrageenan administration. Specifically, the readings were recorded at 1, 2, 3, 4, and 5 h intervals to monitor the progress of the inflammatory response and paw swelling. These obtained results were then compared against the outcomes from the negative control group. The gathered data from the experiment, relating to the impact of the newly synthesized compounds on paw edema, were carefully processed to derive the percentage of edema inhibition. Using the below equation, the percent inhibition was calculated. % Inhibition=Ce−Te/Ce×100
In the formula, ‘Ce’ refers to the control group paw edema volume, while ‘Te’ denotes test groups’ paw edema volume.

mice [3] = experiment: Hot plate antinociceptive test; type: in vivo
[4] = Solubility observation of the isolated compound; type: physicochemical

CCOC(=O)C(C)(C)C1CC(=O)N(c2ccccc2)C1=O (centres unmarked) [MAK01, ethyl 2-(2,5-dioxo-1-phenylpyrrolidin-3-yl)-2-methylpropanoate]
IC50 (5-LOX): 363 µM | 5-LOX percent inhibition (5-LOX; 62.50 μg/mL): 45% | inhibition at 62.5 µg/mL (5-LOX; 62.50 μg/mL, read-out: 5-LOX percent inhibition): 44.8% | 5-LOX percent inhibition (5-LOX; 125 μg/mL): 52% | inhibition at 125 µg/mL (5-LOX; 125 μg/mL, read-out: 5-LOX percent inhibition): 51.9% | 5-LOX percent inhibition (5-LOX; 250 μg/mL): 60% | inhibition at 250 µg/mL (5-LOX; 250 μg/mL, read-out: 5-LOX percent inhibition): 60.2% | 5-LOX percent inhibition (5-LOX; 500 μg/mL): 70% | inhibition at 500 µg/mL (5-LOX; 500 μg/mL, read-out: 5-LOX percent inhibition): 69.9% | 5-LOX percent inhibition (5-LOX; 1000 μg/mL): 79% | inhibition at 1000 µg/mL (5-LOX; 1000 μg/mL, read-out: 5-LOX percent inhibition): 79.4% | Lethal dose (mice [1]; both, mouse, in vivo, po): ~1000 mg per kg of body weight | Signs of toxicity (mice [1]; mice, oral, doses higher than 1000 mg per kg): distress, agitation, convulsions, discomfort, and abnormal behavior | Paw Edema Inhibition in Percent ([2]; dose 10 mg/kg, 1 h): 30.3 ± 0.77 ^ns % | Paw Edema Inhibition in Percent ([2]; dose 10 mg/kg, 2 h): 33.34 ± 0.98 % | Paw Edema Inhibition in Percent ([2]; dose 10 mg/kg, 3 h): 19.62 ± 0.64 % | Paw Edema Inhibition in Percent ([2]; dose 10 mg/kg, 4 h): 31.44 ± 0.74 % | Paw Edema Inhibition in Percent ([2]; dose 10 mg/kg, 5 h): 31.22 ± 0.84 % | Paw Edema Inhibition in Percent ([2]; dose 20 mg/kg, 1 h): 34.7 ± 0.74 ^ns % | Paw Edema Inhibition in Percent ([2]; dose 20 mg/kg, 2 h): 34.7 ± 0.74% and 34.54 ± 0.76 % | Paw Edema Inhibition in Percent ([2]; dose 20 mg/kg, 3 h): 21.42 ± 0.64 % | Paw Edema Inhibition in Percent ([2]; dose 20 mg/kg, 4 h): 29.52 ± 0.63 % | Paw Edema Inhibition in Percent ([2]; dose 20 mg/kg, 5 h): 31.85 ± 0.32 % | Paw Edema Inhibition in Percent ([2]; dose 30 mg/kg, 1 h): 38.74 ± 0.81 ^ns % | Paw Edema Inhibition in Percent ([2]; dose 30 mg/kg, 2 h): 39.20 ± 0.86 % | Paw Edema Inhibition in Percent ([2]; dose 30 mg/kg, 3 h): 34.4 ± 0.64 % | Paw Edema Inhibition in Percent ([2]; dose 30 mg/kg, 4 h): 37.64 ± 0.86 % | Paw Edema Inhibition in Percent ([2]; dose 30 mg/kg, 5 h): 40.58 ± 0.84% and 40.58% | Latency Time (Seconds) on Hot Plate (mice [3]; dose 50 mg/kg, 30 min): 10.32 ± 0.82 s | Latency Time (Seconds) on Hot Plate (mice [3]; dose 50 mg/kg, 60 min): 9.96 ± 0.16 s | Latency Time (Seconds) on Hot Plate (mice [3]; dose 50 mg/kg, 90 min): 9.63 ± 0.26 s | Latency Time (Seconds) on Hot Plate (mice [3]; dose 50 mg/kg, 120 min): 9.49 ± 0.25 s | Latency Time (Seconds) on Hot Plate (mice [3]; dose 50 mg/kg, 150 min): 9.16 ± 0.81 s | Latency Time (Seconds) on Hot Plate (mice [3]; dose 100 mg/kg, 30 min): 12.16 ± 0.51 Seconds and 12.16 ± 0.51 ^ns Seconds | Latency Time (Seconds) on Hot Plate (mice [3]; dose 100 mg/kg, 60 min): 11.92 ± 0.71 s | Latency Time (Seconds) on Hot Plate (mice [3]; dose 100 mg/kg, 90 min): 11.76 ± 0.87 ^ns Seconds | Latency Time (Seconds) on Hot Plate (mice [3]; dose 100 mg/kg, 120 min): 11.14 ± 0.91 ^ns Seconds | Latency Time (Seconds) on Hot Plate (mice [3]; dose 100 mg/kg, 150 min): 10.96 ± 0.74 s | Latency Time (Seconds) on Hot Plate (mice [3]; dose 150 mg/kg, 30 min): 12.93 ± 0.45 Seconds and 12.93 ± 0.45 ^ns Seconds | Latency Time (Seconds) on Hot Plate (mice [3]; dose 150 mg/kg, 60 min): 12.85 ± 0.84 ^ns Seconds | Latency Time (Seconds) on Hot Plate (mice [3]; dose 150 mg/kg, 90 min): 12.42 ± 0.36 ^ns Seconds | Latency Time (Seconds) on Hot Plate (mice [3]; dose 150 mg/kg, 120 min): 11.98 ± 0.74 ^ns Seconds | Latency Time (Seconds) on Hot Plate (mice [3]; dose 150 mg/kg, 150 min): 11.76 ± 0.41 ^ns Seconds | Solubility in organic solvents [4]: soluble in polar organic solvents
